Assay results taken from ChEMBL document CHEMBL6096675 (J Med Chem, 2025).

Experiments:
[1] = Cmax in rat at 1 mg/kg, iv; type: ADME, organism-based; conditions: in vivo
[2] = Drug uptake in tumor of mouse xenografted with human H838 cells at 10 mg/kg, iv single dose measured after 48 hrs by LC-MS/MS analysis; type: ADME, organism-based, Neoplasm, NCI-H838; conditions: read-out: Drug uptake
[3] = Plasma concentration in mouse xenografted with human MV4-11 cells at 30 mg/kg, iv single dose measured after 96 hrs by LC-MS/MS analysis; type: ADME, organism-based
[4] = Drug uptake in tumor of mouse xenografted with human MV4-11 cells at 30 mg/kg, iv single dose measured after 168 hrs by LC-MS/MS analysis; type: ADME, organism-based, Neoplasm; conditions: read-out: Drug uptake

Cmax [1]: 2420 ng/mL
concentration at 48 h [2]: 437 ng/mL
concentration at 96 h [3]: 56 ng/mL
concentration at 168 h [4]: 932 ng/mL
SMILES: Cc1ncsc1-c1ccc([C@H](CN2CCOCC2)NC(=O)[C@@H]2C[C@@H](O)CN2C(=O)[C@@H](n2cc([C@H]3CC[C@H](CN4CCC(c5ccc6c(c5)-n5c(nc(=O)c7c(Cl)cccc75)C65CCCCC5)CC4)CC3)nn2)C(C)(C)C)cc1
